The values below come from ChEMBL document CHEMBL1201862, “PubChem BioAssay data set” (2004).

Activity calls are given as the source filed them. A value given as a limit tells only on which side of the number the result lay.

In assay [1] the target is Peroxisome proliferator-activated receptor gamma/Nuclear receptor coactivator 1 (Homo sapiens, UniProt P37231). Description: TR-FRET dose response biochemical High Throughput Screening assay for agonists of the steroid receptor coactivator 1 (SRC-1) recruitment by the peroxisome proliferator-activated receptor gamma (PPAR gamma): non-selective agonists. [Related pubchem assays (depositor defined):AID1300, AID1808, AID504735, AID631]. It is filed as protein assay.

The target of assay [2] is Peroxisome proliferator-activated receptor gamma/Nuclear receptor coactivator 2 (Homo sapiens, UniProt P37231). Description: TR-FRET dose response biochemical High Throughput Screening assay for agonists of the steroid receptor coactivator 2 (SRC-2) recruitment by the peroxisome proliferator-activated receptor gamma (PPAR gamma): non-selective agonists. [Related pubchem assays: 1297, 1032 ]. Format: functional.

The target in assay [3] is Peroxisome proliferator-activated receptor gamma/Nuclear receptor coactivator 3 (Homo sapiens, UniProt P37231). The assay is described as follows: TR-FRET dose response biochemical High Throughput Screening assay for agonists of the steroid receptor coactivator 3 (SRC-3) recruitment by the peroxisome proliferator-activated receptor gamma (PPAR gamma): non-selective agonists. [Related pubchem assays: 1301 (Confirmation screen.), 1048 (Primary screen.)]. It is filed as functional.

In the next assay the target is T1, CAAX prenyl protease 2 (Saccharomyces cerevisiae S288c, UniProt Q03530).
T1 sequence (Q03530 whole entry): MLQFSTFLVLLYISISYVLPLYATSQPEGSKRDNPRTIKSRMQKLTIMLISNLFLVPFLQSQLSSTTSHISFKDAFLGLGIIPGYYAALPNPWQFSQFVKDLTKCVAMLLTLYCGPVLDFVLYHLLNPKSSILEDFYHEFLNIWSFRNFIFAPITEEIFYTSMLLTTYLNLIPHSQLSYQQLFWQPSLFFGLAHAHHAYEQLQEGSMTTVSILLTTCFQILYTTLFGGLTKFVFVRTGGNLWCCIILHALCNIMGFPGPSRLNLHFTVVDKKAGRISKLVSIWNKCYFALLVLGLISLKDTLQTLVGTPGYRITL
Format: biochemical.

A short description of assay [4]: toxicity toward cultured mammalian cells – cell-based, plate reader, cherry-pick samples, cytotoxicity control, dose response (AID 504397). It is filed as functional.
The target of assay [5] is T2, Voltage-gated N-type calcium channel alpha-1B subunit/Amyloid beta A4 precursor protein-binding family A member 1 (Homo sapiens, UniProt Q00975+Q02410). It is filed as protein assay.
T2 sequence (Q00975 whole entry): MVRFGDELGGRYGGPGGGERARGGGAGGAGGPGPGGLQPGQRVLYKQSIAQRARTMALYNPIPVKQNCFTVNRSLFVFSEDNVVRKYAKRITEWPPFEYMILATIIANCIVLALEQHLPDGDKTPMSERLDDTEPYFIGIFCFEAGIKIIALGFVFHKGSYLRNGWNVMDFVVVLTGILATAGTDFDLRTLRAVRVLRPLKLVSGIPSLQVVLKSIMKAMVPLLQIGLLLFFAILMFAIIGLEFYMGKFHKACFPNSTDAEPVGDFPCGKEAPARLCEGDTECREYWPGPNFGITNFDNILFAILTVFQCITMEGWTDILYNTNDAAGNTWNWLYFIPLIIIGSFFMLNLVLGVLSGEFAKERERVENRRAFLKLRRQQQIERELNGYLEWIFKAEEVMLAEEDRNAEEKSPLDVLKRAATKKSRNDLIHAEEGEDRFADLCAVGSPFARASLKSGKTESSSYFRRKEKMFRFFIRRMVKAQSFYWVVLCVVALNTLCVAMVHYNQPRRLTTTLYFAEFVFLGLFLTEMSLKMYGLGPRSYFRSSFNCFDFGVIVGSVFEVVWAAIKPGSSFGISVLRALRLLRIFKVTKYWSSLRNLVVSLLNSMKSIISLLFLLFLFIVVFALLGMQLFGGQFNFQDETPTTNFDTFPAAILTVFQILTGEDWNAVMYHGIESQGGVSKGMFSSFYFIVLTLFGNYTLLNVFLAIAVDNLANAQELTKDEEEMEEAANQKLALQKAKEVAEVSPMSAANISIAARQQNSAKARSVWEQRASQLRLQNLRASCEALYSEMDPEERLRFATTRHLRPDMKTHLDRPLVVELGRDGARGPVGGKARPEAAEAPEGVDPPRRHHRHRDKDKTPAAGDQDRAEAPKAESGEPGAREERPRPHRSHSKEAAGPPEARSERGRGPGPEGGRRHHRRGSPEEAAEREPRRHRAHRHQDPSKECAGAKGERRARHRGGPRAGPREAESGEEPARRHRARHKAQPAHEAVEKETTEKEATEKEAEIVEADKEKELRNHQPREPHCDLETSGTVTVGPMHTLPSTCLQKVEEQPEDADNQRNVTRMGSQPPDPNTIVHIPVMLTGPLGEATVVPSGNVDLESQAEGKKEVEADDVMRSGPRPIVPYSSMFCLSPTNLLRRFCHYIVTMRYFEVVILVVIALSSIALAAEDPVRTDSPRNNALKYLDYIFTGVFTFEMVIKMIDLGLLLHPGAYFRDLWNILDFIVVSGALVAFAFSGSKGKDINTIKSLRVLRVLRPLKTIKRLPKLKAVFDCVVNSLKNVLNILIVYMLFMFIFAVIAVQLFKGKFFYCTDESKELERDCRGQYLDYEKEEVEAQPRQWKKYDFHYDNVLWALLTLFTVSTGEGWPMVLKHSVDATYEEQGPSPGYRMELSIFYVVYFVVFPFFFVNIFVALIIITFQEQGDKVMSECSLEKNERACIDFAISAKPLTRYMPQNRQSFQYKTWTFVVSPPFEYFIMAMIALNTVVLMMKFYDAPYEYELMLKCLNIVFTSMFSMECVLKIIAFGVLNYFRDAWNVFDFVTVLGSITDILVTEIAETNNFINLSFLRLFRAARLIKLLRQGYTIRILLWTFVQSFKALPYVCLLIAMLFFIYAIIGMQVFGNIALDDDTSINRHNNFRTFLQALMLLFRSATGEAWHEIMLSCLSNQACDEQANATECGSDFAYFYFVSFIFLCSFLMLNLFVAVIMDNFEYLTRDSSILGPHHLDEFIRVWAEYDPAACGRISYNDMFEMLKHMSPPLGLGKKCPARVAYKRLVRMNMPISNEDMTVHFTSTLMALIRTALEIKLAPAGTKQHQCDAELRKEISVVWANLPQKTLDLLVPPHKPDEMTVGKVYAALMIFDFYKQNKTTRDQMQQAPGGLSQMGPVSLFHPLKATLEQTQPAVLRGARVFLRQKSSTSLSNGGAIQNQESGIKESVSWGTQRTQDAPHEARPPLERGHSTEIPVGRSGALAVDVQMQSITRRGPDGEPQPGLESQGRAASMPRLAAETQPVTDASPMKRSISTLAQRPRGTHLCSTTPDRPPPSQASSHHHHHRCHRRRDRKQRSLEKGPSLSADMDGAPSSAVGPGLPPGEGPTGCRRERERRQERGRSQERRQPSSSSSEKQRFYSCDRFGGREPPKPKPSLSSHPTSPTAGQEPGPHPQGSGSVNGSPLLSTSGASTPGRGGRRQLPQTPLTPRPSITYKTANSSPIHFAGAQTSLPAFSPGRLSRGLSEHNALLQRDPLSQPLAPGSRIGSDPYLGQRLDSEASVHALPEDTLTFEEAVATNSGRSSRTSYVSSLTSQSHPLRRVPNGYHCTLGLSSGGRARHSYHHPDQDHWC
T2 sequence (Q02410 whole entry): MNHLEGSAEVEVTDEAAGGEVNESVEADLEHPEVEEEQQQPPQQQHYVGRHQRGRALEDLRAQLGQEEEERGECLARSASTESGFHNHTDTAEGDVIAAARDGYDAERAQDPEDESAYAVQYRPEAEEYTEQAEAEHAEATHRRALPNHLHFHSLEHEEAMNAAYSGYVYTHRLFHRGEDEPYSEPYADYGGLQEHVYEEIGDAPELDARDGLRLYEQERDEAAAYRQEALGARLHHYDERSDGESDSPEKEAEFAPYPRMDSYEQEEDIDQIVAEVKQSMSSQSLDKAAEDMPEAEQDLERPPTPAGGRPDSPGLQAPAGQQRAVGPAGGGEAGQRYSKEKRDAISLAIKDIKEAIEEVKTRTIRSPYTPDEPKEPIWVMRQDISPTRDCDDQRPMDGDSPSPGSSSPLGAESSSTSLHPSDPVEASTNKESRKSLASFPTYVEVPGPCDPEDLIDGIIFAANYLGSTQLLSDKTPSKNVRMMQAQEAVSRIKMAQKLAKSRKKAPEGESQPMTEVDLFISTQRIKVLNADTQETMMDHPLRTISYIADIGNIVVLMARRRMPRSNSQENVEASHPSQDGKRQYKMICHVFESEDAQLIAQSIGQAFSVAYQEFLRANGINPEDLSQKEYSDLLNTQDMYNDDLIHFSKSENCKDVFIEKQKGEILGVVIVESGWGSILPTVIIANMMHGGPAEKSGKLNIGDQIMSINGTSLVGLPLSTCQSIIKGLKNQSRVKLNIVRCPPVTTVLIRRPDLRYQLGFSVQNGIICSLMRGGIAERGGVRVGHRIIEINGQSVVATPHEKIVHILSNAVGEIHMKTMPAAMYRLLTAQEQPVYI
Assay [6] addresses T3, Intestinal-type alkaline phosphatase (Homo sapiens, UniProt P09923). Description: human intestinal alkaline phosphatase activators, dose response, biochemical, luminescence, uHTS hits (AID 463120). Format: functional.
The target in assay [7] is T2, Voltage-gated N-type calcium channel alpha-1B subunit/Amyloid beta A4 precursor protein-binding family A member 1. Format: protein assay. The source holds these as a separate data set.
The next assay addresses Troponin, cardiac muscle (Homo sapiens, UniProt P19429+P45379+P63316). Description: Fluorescence-based biochemical high throughput dose response assay for activators of the calcium sensitivity of cardiac Regulated Thin Filaments (RTF). [Related pubchem assays (depositor defined):AID493008, AID493018, AID504382, AID504383]. Format: protein-complex assay.
In assay [8] the target is Lysine-specific demethylase 4C (Homo sapiens, UniProt Q9H3R0). Description: inhibition of JMJD2C H3K9me3 demethylation – biochemical, DELFIA europium, cherry-picked samples, dose response (AID 488835). Format: functional.
Assay [9] deals with DNA dC->dU-editing enzyme APOBEC-3A (Homo sapiens, UniProt P31941). Description: Dose Response confirmation of small molecule APOBEC3A DNA Deaminase Inhibitors via a fluorescence-based single-stranded DNA deaminase assay. [Related pubchem assays (depositor defined):AID493011, AID493024]. Format: functional.
DNA dC->dU-editing enzyme APOBEC-3A, sequence (P31941 whole entry): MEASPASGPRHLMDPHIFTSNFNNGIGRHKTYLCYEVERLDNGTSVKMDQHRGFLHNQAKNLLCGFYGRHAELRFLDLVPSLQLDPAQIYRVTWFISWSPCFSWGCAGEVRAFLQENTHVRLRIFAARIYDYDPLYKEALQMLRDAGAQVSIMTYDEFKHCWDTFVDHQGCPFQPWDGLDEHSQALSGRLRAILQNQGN
Assay [10] concerns the target T4, High affinity choline transporter 1 (Homo sapiens, UniProt Q9GZV3).
T4 sequence (Q9GZV3 whole entry): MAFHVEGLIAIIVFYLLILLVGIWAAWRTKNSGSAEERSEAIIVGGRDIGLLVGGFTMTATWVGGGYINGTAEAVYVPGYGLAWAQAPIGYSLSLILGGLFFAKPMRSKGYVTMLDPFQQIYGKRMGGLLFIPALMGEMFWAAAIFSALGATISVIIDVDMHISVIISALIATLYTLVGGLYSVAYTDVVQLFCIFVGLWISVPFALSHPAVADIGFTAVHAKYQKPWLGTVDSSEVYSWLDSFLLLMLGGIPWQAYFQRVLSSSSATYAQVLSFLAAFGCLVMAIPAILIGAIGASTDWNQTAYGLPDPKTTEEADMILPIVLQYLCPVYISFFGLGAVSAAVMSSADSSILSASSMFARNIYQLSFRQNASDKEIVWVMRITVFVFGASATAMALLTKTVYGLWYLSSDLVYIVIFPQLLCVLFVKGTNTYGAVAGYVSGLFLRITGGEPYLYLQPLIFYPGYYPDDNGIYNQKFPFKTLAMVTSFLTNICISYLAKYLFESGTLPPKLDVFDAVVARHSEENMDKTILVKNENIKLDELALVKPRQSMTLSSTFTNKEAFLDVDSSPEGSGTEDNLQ
The assay is described as follows: human choline transporter blockers, potency – cell-based, 5-point CRC, membrane potential dye, dose response (AID 504840). It is filed as functional.

Assay [11] addresses DNA dC->dU-editing enzyme APOBEC-3G (Homo sapiens, UniProt Q9HC16). It is filed as functional.
Another assay deals with INS1. Description: INS-1E survival protection against cytokine death – cell-based, luminescence, retest, dose response (AID 449756).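 Also: cell death triggered by IL-1 beta plus TNF-alpha plus IFN-gamma mixture; protective hits raise ATP signal compared with cytokine alone wells.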 Format: functional. To be noted: Rattus norvegicus.
The next assay addresses T5, Hexokinase HKDC1 (Homo sapiens, UniProt Q2TB90).
T5 sequence (Q2TB90 whole entry): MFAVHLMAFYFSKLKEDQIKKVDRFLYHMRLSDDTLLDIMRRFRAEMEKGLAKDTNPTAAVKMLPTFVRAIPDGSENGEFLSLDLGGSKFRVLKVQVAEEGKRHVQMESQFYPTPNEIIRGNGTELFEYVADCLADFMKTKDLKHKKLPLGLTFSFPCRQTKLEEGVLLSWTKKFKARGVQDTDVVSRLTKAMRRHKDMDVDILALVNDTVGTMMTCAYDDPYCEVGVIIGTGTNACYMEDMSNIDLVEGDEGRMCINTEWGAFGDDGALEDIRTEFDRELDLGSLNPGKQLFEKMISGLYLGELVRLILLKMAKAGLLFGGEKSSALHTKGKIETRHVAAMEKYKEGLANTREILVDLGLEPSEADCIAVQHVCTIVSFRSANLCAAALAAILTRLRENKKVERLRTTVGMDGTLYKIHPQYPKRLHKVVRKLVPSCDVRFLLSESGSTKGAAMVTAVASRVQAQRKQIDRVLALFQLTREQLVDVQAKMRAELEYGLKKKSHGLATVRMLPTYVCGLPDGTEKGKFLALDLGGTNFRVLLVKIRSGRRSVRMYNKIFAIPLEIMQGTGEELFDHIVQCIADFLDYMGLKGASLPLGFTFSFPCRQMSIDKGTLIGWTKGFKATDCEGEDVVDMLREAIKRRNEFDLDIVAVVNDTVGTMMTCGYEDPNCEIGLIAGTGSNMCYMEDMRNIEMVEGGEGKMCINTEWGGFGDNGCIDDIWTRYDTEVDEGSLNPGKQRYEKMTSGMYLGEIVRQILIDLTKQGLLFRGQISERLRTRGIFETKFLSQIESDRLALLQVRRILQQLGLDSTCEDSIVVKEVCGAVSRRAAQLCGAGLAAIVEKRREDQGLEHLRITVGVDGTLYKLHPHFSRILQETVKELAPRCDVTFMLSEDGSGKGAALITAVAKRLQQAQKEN
The assay is described as follows: activation of HKDC1 glucose phosphorylation – biochemical, W721R variant, dose response (AID 504730). It is filed as functional.

Another assay has as its target T6, Hexokinase-1 (Homo sapiens, UniProt P19367).
T6 sequence (P19367 whole entry): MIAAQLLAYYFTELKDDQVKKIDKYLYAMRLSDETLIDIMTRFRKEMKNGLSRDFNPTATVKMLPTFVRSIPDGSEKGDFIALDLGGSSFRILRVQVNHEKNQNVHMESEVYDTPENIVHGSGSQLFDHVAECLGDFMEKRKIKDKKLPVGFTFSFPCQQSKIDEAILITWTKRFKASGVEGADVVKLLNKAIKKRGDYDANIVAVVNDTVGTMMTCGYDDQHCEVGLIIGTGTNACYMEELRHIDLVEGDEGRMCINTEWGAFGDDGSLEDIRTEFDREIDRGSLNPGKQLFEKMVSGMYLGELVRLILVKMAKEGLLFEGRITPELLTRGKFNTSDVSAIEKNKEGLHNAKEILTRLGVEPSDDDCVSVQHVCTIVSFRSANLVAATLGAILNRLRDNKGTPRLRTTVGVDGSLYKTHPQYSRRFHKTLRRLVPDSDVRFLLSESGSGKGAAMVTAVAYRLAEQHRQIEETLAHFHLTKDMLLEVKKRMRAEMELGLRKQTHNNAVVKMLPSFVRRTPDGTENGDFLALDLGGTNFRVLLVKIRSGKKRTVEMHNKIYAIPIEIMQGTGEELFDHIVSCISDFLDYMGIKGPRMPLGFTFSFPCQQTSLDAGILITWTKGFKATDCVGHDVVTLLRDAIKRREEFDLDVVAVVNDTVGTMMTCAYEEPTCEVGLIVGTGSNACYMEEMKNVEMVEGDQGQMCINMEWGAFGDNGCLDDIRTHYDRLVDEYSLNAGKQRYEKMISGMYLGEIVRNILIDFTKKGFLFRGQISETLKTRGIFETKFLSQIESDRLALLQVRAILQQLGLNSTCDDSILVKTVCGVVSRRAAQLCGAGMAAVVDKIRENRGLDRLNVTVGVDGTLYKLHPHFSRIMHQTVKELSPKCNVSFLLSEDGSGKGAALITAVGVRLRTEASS
Description: HK1 enzyme activation by HKDC1 hits – biochemical, selectivity assay for HKDC1 activator project, dose response (AID 504762). It is filed as functional.

The target in assay [12] is T3, Intestinal-type alkaline phosphatase. Description: Dose Response confirmation of uHTS hits from a small molecule inhibitors of human intestinal alkaline phosphatase via a luminescent assay. [Related pubchem assays (depositor defined):AID2544, AID2574]. It is filed as functional.
The target of assay [13] is T7, Oxysterols receptor LXR-beta (Homo sapiens, UniProt P55055).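 Also: Cell-based luminescence dose-response assay of agonist activity at LXR, run as a confirmatory counterscreen to a daf-12 agonist screen; HEK293 cells with Gal4-LXR fusion and GAL4-driven luciferase reporter; agonist potency from rising luciferase signal of a Gal4-LXR reporter.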
T7 sequence (P55055 whole entry): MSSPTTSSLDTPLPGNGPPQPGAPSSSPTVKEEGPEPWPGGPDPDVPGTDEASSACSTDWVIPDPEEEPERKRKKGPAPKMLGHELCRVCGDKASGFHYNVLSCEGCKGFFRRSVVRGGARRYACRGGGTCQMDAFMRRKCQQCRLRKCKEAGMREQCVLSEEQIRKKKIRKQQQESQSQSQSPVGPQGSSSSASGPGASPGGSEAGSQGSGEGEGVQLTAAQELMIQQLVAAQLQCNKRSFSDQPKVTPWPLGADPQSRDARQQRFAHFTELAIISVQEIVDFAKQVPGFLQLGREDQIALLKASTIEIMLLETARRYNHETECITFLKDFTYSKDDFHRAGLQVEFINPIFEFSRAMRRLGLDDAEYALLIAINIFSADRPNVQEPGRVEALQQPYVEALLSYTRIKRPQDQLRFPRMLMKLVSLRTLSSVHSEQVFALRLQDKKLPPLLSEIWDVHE
Format: functional, cell-based.

A short description of assay [14]: viability of uninfected HEp-2 cells – cell-based, HTS, cytotoxicity control for RSV inhibitor project, dose response (AID 2410). It is filed as functional. The conditions noted are these: human respiratory syncytial virus.
The next assay deals with Keap1/Nrf2 (Homo sapiens, UniProt Q14145). Description: disruptors of Keap1 binding to Nrf2 peptide – biochemical, fluorescence polarization, cherry-picked samples, dose response (AID 588683).

T3 sequence (P09923 whole entry): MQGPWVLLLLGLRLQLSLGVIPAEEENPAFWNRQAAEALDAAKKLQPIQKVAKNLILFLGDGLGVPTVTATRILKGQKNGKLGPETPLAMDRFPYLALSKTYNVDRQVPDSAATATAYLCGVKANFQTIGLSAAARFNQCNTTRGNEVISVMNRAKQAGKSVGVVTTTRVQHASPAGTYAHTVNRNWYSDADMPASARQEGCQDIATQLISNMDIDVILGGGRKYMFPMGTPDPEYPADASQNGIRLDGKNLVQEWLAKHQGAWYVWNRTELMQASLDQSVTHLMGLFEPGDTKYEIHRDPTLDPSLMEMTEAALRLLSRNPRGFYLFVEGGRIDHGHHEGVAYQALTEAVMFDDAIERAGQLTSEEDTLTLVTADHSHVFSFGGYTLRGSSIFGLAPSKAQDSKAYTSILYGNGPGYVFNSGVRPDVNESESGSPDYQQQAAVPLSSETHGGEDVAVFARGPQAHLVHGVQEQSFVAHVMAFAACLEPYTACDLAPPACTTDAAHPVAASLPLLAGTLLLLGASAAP
DNA dC->dU-editing enzyme APOBEC-3G, sequence (Q9HC16 whole entry): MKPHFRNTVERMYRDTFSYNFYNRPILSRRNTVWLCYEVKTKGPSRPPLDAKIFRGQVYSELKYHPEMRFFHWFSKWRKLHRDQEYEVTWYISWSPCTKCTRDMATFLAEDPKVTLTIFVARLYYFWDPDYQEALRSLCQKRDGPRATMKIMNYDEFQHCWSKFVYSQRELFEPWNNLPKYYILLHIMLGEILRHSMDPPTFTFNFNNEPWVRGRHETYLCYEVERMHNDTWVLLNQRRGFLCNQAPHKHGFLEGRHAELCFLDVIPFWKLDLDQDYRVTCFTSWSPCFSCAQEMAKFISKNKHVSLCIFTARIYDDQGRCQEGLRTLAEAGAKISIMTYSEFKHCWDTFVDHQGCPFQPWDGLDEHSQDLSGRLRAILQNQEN

On to `Sc1nc(-c2ccc(Cl)cc2)cs1`, for which the values for the EC50 in [1], in [2] and in assay [3] were 12 µM (inactive), 21.8 µM (not active) and > 79.4 µM (not active), respectively.
In the case of `CCN(CC)CCN(C(=O)c1ccc2ccccc2c1)c1nc2ccc(F)cc2s1`, the AC50 on CAAX prenyl protease 2 is 6.18 µM (active); in [4] it was 181 µM (active).
As for `COc1cccc(/C=N/Nc2nn3cnnc3c3ccccc23)c1O`, the figures for the IC50 in assay [5] and in assay [7] were > 50 µM (inactive) and 20.6 µM (active), respectively. The EC50 in [6] was > 100 µM (inactive).
`COc1cc(OC)c(C(=O)OC(C)C(=O)Nc2cccc(C(F)(F)F)c2)cc1OC` (stereo not drawn): on Troponin, cardiac muscle, the EC50 is > 71.5 µM (inactive).
Take `Nc1cccc(C(=O)Nc2ccco2)c1`: the AC50 in [8] was 27.5 µM (active).
`CC(=O)OCCCCCCCCCCC[N+]1(C)CCCCC1`: the results for the IC50 in [9], in assay [10] and in assay [11] were 2.03 µM (active), 14.1 µM (active) and 2.17 µM (active), respectively.
Consider `Cc1onc(-c2ccccc2Cl)c1C(=O)Nc1nnc(-c2ccc(Cl)cc2Cl)s1`, for which the EC50 is 51.2 µM (inactive) in [1], 42.8 µM (not active) in [2] and 75.5 µM (not active) in assay [3].
For `CCOCc1cnc(C)nc1NCC(=O)c1c(C)[nH]c2ccc(OC)cc12`, the IC50 in assay [9] was 2.59 µM (active); in assay [11], 5.53 µM (active).
`Clc1cccc(NC2=NN=C(c3ccc4c(c3)OCCO4)CS2)c1`: in the assay on INS1, the AC50 was 2.25 µM (active). The values for the EC50 on Hexokinase HKDC1 and on Hexokinase-1 were 23.2 µM (inactive) and 41.3 µM (inactive), respectively.
`NC(=O)c1c(NC(=O)c2ccc(F)cc2)sc2c1CCC2`: the IC50 in [12] was > 100 µM (inactive). Besides, the EC50 in “cells” is > 67.5 µM (inactive); in [6], > 100 µM (inactive); in assay [13] it was > 67.5 µM (inactive).
As to `CCn1c(=O)c(C(=O)CN2CCCc3ccccc32)c(N)n(Cc2ccccc2)c1=O`, at Troponin, cardiac muscle, the EC50 is > 23.8 µM (inactive). Also, the CC50 in assay [14] is 12.4 µM (active).
`Cc1ccc(NC(=O)/C(C#N)=C(\N)C(Cl)(Cl)Cl)nc1`: the AC50 on Keap1/Nrf2 is 11.9 µM (active).
